From US7285621B2, “Multiple branch peptide construction” (Ambrilia Biopharma, priority 1999, dated 2007)

Tests used:
Format in all cases: cell-based
[1] = tested on: HIV-1NL4-3; assay: HIV-1NL4-3 infection of C8166 cells (syncytia formation, p24 ELISA); design: key to Syncytium formation: ++: number of syncytia present in the well were similar to that in control untreated well (35 to 40 syncitia per well); −: total absence of syncitia in the well; ±: presence of 1 to 3 syncitia in the well; details: for Syncytium formation / P24: C8166 cells; for HIV inhibition characteristics: Table 3, C8166 cells
Procedure: C8188 cells were infected with HIV to establish a baseline control. Similar C8188 cells were pretreated the invented MBPCs and then subjected to HIV to determine inhibition rates. The results are illustrated in FIGS. 1A, 1B and 2.
Samples of 3×10^5 C8166 cells were placed in 96-well plates in a volume of 100 μl of culture medium containing various concentrations of peptide. After a one hour treatment at 37° C., 100 μl of viral solution of HIV-1NL4-3 were added. The cells were exposed to the virus of one hour at 37° C. at a multiplicity of infection of 1,000 TCID50 per ml. After through washing, cells were replaced in 1 ml of R10 with the treatment in 24-well plates and cultured in a 37° C. incubator. C8166 culture medium was replaced at day-4 post-infection. During this assay, treatment with peptide was permanent (before, during and after infection). Assays on C8166 cells have been performed at least twice and in duplicate. Toxicity was evaluated by daily cell count and trypan-blue exclusion assay. Infection of C8166 T-Cells with HIV-1NL4-3 was assessed by virus-induced cytopathic effect (syncytia formation) and by quantification of p24 viral protein in the culture supernatants. Measurements of HIV-1 p24^gag concentrations in the culture supernatants were achieved by ELISA, with a detection cut-off of 5 pg/ml (p24 HIV kit, NEN Dupont, Belgium; Quanti-Kine software, RILAB, Genova, Italy).

[2] = tested on: HIV-1NL4-3; assay: HIV-1NL4-3 infection of human PBLs/PBMCs (p24 ELISA); details: 0.1 μM, FIG. 2
Procedure: Human peripheral blood lymphocytes (PBLs) obtained from healthy HIV-seronegative donor (Etablissement Francais du Sang, Marseille, France) were isolated by ficoll-Hypaque gradient centrifugation. Cells were cultured in R10 medium supplemented with 20 units/ml of interleukin-2 (IL-2, Proleukin, Chiron, The Netherlands). R10 medium consists of RPMI 1640 supplemented with 2 mM ultraglutamine (BioWhittaker, Vervires, Belgium), penicillin (100 units/ml), streptomycin (100 μg/ml), and 10% heat-inactivated fetal calf serum (BioWhittaker). Cells were first stimulated with phytohemaggiutinin (20 μg/ml)-supplemented R10 (PHA P, DIFCO, Detroit, Mich., USA) for three days. Then, the medium was replaced with R10 supplemented with IL2 (20 units/ml), and subsequently cultures and experiments were carried out in this medium in a 37° C. humidified incubator with 5% CO2.
Samples of 10^6 human PBLs were placed in 96-well plates in 100 μl of R10 containing various concentrations of peptide. After one hour treatment of 37° C., 100 μl of viral solution of HIV-1NL4-3 were added. The cells were exposed to the virus for one hour at 37° C. flushed with 5% CO2. The PBL culture medium was replaced every 3-4 days. The cell viability was assessed by cell counts and trypan-blue exclusion assay. The viral production in the culture supernatant was quantified by p24 ELISA test, as described supra. […]

[3] = tested on: HIV-1 and HIV-2 viruses; assay: In vitro inhibition of HIV-induced syncytium formation and infection of human lymphocytes; details: HIV-1 and HIV-2 laboratory strains and clinical isolates

Substance	Syncytium formation ([1]; peptide 1 μm)	Syncytium formation ([1]; peptide 10 μm)	further results
(QGYSPL)2-K-βA [Peptide 5]	± (presence of 1 to 3 syncitia in the well)	−	
(RQG)2-K-βA [Peptide 4]	± (presence of 1 to 3 syncitia in the well)	−	
(RQGY)2-K-βA [Peptide 3]	± (presence of 1 to 3 syncitia in the well)	± (presence of 1 to 3 syncitia in the well)	
(RQGY)8-(K)4-(K)2-K-βA-OH [(RQGY)8-K4-K2-K-βA]			inhibition of syncytium formation and p24 production of HIV-infected cells ([1]; 5 μM): 100%
(RQGYS)2-K-βA-OH [Peptide 2]	−	−	HIV inhibition characteristics [1]: superior HIV inhibition characteristics; P24 ([1]; peptide 1 μm): 0 pg/mL; P24 ([1]; peptide 10 μm): 0 pg/mL
(RQGYSP)2-K-βA [Peptide 1]		−	
(RQGYSPL)2-K-βA [Peptide 11]	−	−	inhibition of HIV-1NL403 infected PBMCs [2]: 100%; viral activity relative to controls ([1]; 0.1 micro-molar (μm), FIG. 1, C8166 cells): one tenth that seen in controls; viral activity ([1]; 5 μm, FIG. 1, C8166 cells): virtually no activity; viral activity ([1]; 10 μm, FIG. 1, C8166 cells): no viral activity; inhibition of syncytium formation and p24 production ([1]; HIV-1NL403 infected C8166 cells, FIG. 1): marked inhibition; HIV inhibition characteristics [1]: superior HIV inhibition characteristics; P24 ([1]; peptide 1 μm): 0 pg/mL; P24 ([1]; peptide 10 μm): 0 pg/mL
(SPL)2-K-βA [Peptide 8]	++ (number of syncytia present in the well were similar to that in control untreated well (35 to 40 syncitia per well))	± (presence of 1 to 3 syncitia in the well)	
(YSPL)2-K-βA [Peptide 7]	± (presence of 1 to 3 syncitia in the well)	± (presence of 1 to 3 syncitia in the well)	
RQGYSPL [monomeric RQGYSPL]			antiviral properties (HIV-induced syncytium formation, infection of human lymphocytes) [3]: inactive
